# Test results from patent US20090104159A1, “Vascular/Lymphatic Endothelial Cells” (priority 2005, published 2009).
# B1: VEGF-C: VEGF family growth factor (R&DSystems) used for lymphatic differentiation (protein, UniProt P49767 112-227, looked up)
# Vascular endothelial growth …: AHYNTEILKSIDNEWRKTQCMPREVCIDVGKEFGVATNTFFKPPCVSVYRCGGCCNSEGLQCMNTSTSYLSKTLFEITVPLSQGPKPVTISFANHTSCRCMSKLDVYRQVHSIIRR
# Tests used:
# hMAPCs [1] = assay: Blocking of Patched and Notch pathways during hMAPC-EC differentiation; assay type: cell-based, human; conditions: hMAPC-ECs, 14 days, exogenous VEGF present, cyclopamine 5 μM; for expression of arterial EC markers Hey-2, EphrinB1 and EphrinB2: L-685,458 1 μM
# Protocol: For real time RT-PCR Syber Green and Taq Man® methods were used as described (Hong et al., 2004). GAPDH was used as a housekeeping control. […] Primers used for both RT-PCR and real time PCR are shown below in Table 2.
# Blocking of Patched and Notch pathways was performed using cyclopamine Watkins et al., 2003) (Biomol) at 5 μM (added every 4-5 days with media change) and 1 μM of esecretase inhibitor L-685,458 (Bachem) (Dahlqvist et al., 2003), respectively. Exogenous VEGF was present in the media for the blocking experiments (no exogenous Shh or Dll-4).
# hMAPCs [2] = assay: Smooth muscle differentiation from hMAPCs; assay type: cell-based, human; conditions: hMAPCs treated for 6 days, Q-RT-PCR and immunofluorescence
# Protocol: Smooth muscle differentiation: hMAPCs were plated at 1×10^3 cells/cm^2 in growth media (58% low-glucose DMEM (Gibco BRL), 40% MCDB-201 (Sigma), 2% fetal calf serum (FCS) (Biochrom), ITS+1 (Sigma), 10^−8 M dexamethasone (Sigma), 10^−8 M ascorbic acid 2-phosphate (Sigma), 100 U penicillin, 1000 U streptomycin (Gibco BRL) and 10 ng/mL each of PDGF-BB and EGF during 24 hours and then media was exchanged with the same basal media, without FCS, EGF but now with 10 ng/ml TGF-β1. Media was changed every 4-5 days.
# mouse MAPCs = assay: Endothelial differentiation of mouse MAPCs (qRT-PCR); assay type: cell-based; conditions: Shh-antibody 0.5 micrograms/ml, cyclopamine 10 micromolar
# Protocol: (§1) Glass 4-well chambers with were coated with 1 μg/ml human fibronectin (Sigma, F0895) for about 30 minutes to about 1 hour in the 37° C. incubator. The cells were collected (with the use of 0.05% trypsin), counted and resuspended at 120K/ml in mouse MAPC culture media (see above). The fibronectin was taken off and the cells were seeded (1 ml per well) (=Day 0). The cells were then incubated at 37° C., 5% O2 overnight. […] The media was changed 50% (using differentiation media) on day 4 and from then on, media changed 50% every other day. For rat cells, the differentiation media contained 2% serum.
# rat MAPCs = assay: Endothelial differentiation of rat MAPCs (qRT-PCR); assay type: cell-based; conditions: Shh-antibody 0.5 micrograms/ml, cyclopamine 10 micromolar
# Protocol: as §1
# murine MAPCs = conditions: about 10 ng/mL LIF added to PDGF-BB and EGF; cited from earlier work
# human MAPCs = conditions: about 10 ng/mL LIF, till 25 cell doublings; cited from earlier work
# hMAPC = assay: Lymphatic differentiation of hMAPC (real time PCR of Prox-1, Lyve-1, podoplanin); assay type: cell-based, human; conditions: compared with VEGF165 alone
# Protocol: Arterial and/or venous differentiation was induced by addition of different combinations of the following growth factors: VEGF121 was used at 100 ng/ml and VEGF165 in different combinations with Delta-like 4 (Dll-4), Jagged-1, or Shh (all from R&DSystems) all at 100 ng/ml. Lymphatic differentiation was induced by addition of 100 ng/ml VEGF-C(R&DSystems) and 20 ng/ml bFGF (Sigma). Except for VEGF121, which was added alone, the other factors were added at the same time as VEGF165 in the various described combinations.
# For real time RT-PCR Syber Green and Taq Man® methods were used as described (Hong et al., 2004). GAPDH was used as a housekeeping control. Results are presented as fold increase in comparison with the expression of the gene in undifferentiated cells or as percentage of positive control (cord blood derived venous and arterial ECs) (Jaffe et al., 1973; Neuhaus et al., 2003). Primers used for both RT-PCR and real time PCR are shown below in Table 2.
molecule,measurement,setting,value
"CC(C)C[C@H](NC(=O)[C@H](Cc1ccccc1)C[C@@H](O)[C@H](Cc1ccccc1)NC(=O)OC(C)(C)C)C(=O)N[C@@H](Cc1ccccc1)C(N)=O [γ-secretase inhibitor, L-685,458]","expression of arterial EC markers Hey-2, EphrinB1 and EphrinB2",hMAPCs [1],even more pronounced attenuation
"TGF-β1: growth factor, 10 ng/ml, used for smooth muscle differentiation",expression of SMC markers,hMAPCs [2],upregulated expression of SMC markers
CC1=C2C[C@H]3[C@@H](CC=C4C[C@@H](O)CC[C@@]43C)[C@@H]2CC[C@]12O[C@@H]1C[C@H](C)CN[C@H]1[C@H]2C [cyclopamine],arterial component in the cell cultures,mouse MAPCs,decrease the arterial component
same,expression of the venous marker EphB4,hMAPCs [1],slightly increased
same,"expression of arterial EC markers Hey-2, EphrinB1 and EphrinB2",hMAPCs [1],significantly decreased
same,arterial component in the cell cultures,rat MAPCs,decrease the arterial component
"LIF: leukemia inhibitory factor, culture supplement",cell growth,murine MAPCs,significantly enhanced cell growth
same,short-term cell growth,human MAPCs,did not affect short-term cell growth
B1,"expression of lymphatic genes Prox-1, Lyve-1 and podoplanin",hMAPC,does not enhance expression of these genes more than VEGF165 alone
